From ChEMBL document CHEMBL5620379, “Discovery, SAR and mechanistic studies of quinazolinone-based acetamide derivatives in experimental visceral leishmaniasis” (Eur J Med Chem, 2023)
Calls of active or inactive are those of the source. No cut-off for these calls is given here.

Assays:
Leishmania donovani [1] = experiment: Antileishmanial activity against Leishmania donovani promastigotes at 25 uM measured after 12 hrs by luciferase assay relative to control; format: functional
J774 [2] = experiment: Immunostimulatory activity in mouse J774 macrophage infected with Leishmania donovani promastigotes assessed as fold increase in iNOS mRNA expression at 25 uM measured after 48 hrs in presence of nitric oxide by spectrophotometer analysis; format: functional
[3] = Toxicity in BALB/c mouse assessed as effect on body weight at 10 to 40 mg/kg, po measured after 1 week; format: organism-based; conditions: in vivo, 168 h, dose 10-40 mg/kg, time 1 weeks
J774 [4] = experiment: Cytotoxicity against mouse J774 macrophage incubated for 72 hrs by MTT assay; format: functional
Leishmania donovani [5] = experiment: Antileishmanial activity against Leishmania donovani amastigotes infected in J774 macrophage assessed as inhibition of parasite growth at 25 uM incubated for 48 hrs by luciferase assay relative to control; format: functional; design: scale not given: the % may be the effect or the level left
Leishmania donovani [6] = experiment: Antileishmanial activity against amastigote form of Leishmania donovani infected in BALB/c mouse assessed as inhibition of parasite growth in spleen at 10 mg/kg, po measured after 1 week post treatment by geimsa staining based analysis relative to control; format: functional; design: scale not given: the % may be the effect or the level left; conditions: time 1 weeks
[7] = Renal toxicity in golden hamster assessed as effect on creatinine level at 40 mg/kg, po measured after 28 days post infection; format: organism-based, Mesocricetus auratus; conditions: in vivo, 672 h, time 28 day
Leishmania donovani [8] = experiment: Induction of cell cycle arrest in Leishmania donovani promastigotes assessed as accumulation of cells at G2/M phase at 25 uM measured after 12 hrs by PI staining based flow cytometry analysis (reference value: 35.7%); format: functional
J774 [9] = experiment: Downregulation of CREB enrichment in mouse J774 macrophage infected with Leishmania donovani at 25 uM measured after 4 hrs by ChIP assay; format: functional, cell-based
Leishmania donovani [10] = experiment: Induction of cell cycle arrest in Leishmania donovani promastigotes assessed as accumulation of cells at G1 phase at 25 uM measured after 4 hrs by PI staining based flow cytometry analysis (reference value: 35.7%); format: functional
Leishmania donovani [11] = experiment: Antileishmanial activity against Leishmania donovani promastigotes at 25 uM measured after 12 hrs in presence of antipain by luciferase assay relative to control; format: functional
Leishmania donovani [12] = experiment: Induction of autophagy in Leishmania donovani promastigotes assessed as fold induction of ATG8 gene at 25 uM measured after 24 hrs by RT-PCR analysis; format: functional
Leishmania donovani [13] = experiment: Induction of cell cycle arrest in Leishmania donovani promastigotes assessed as accumulation of cells at G2/M phase at 25 uM measured after 24 hrs by PI staining based flow cytometry analysis (reference value: 35.7%); format: functional
Leishmania donovani [14] = experiment: Induction of cell cycle arrest in Leishmania donovani promastigotes assessed as accumulation of cells at S phase at 25 uM measured after 12 hrs by PI staining based flow cytometry analysis (reference value: 28.6%); format: functional
[15] = Toxicity in BALB/c mouse assessed as effect on skin texture at 10 to 40 mg/kg, po measured after 1 week; format: organism-based; conditions: in vivo, 168 h, dose 10-40 mg/kg, time 1 weeks
Leishmania donovani [16] = experiment: Induction of apoptosis in Leishmania donovani promastigotes assessed as appearance of intense swelling in mitochondria at 25 uM by transmission electron microscopy analysis; format: functional, organism-based
Leishmania donovani [17] = experiment: Antileishmanial activity against amastigote form of Leishmania donovani infected in BALB/c mouse assessed as inhibition of parasite growth in liver at 40 mg/kg, po measured after 1 week post treatment by geimsa staining based analysis relative to control; format: functional; design: scale not given: the % may be the effect or the level left; conditions: time 1 weeks
Leishmania donovani [18] = experiment: Induction of cell cycle arrest in Leishmania donovani promastigotes assessed as accumulation of cells at G1 phase at 25 uM measured after 24 hrs by PI staining based flow cytometry analysis (reference value: 35.7%); format: functional
J774 [19] = experiment: Cytotoxicity against mouse J774 cells at 25 uM incubated for 72 hrs by MTT assay relative to control; format: toxicity, cell-based; conditions: j774, 72 h
J774 [20] = experiment: Cytotoxicity against mouse J774 cells at 50 uM incubated for 72 hrs by MTT assay relative to control; format: toxicity, cell-based; conditions: j774, 72 h
Leishmania donovani [21] = experiment: Induction of autophagy in Leishmania donovani promastigotes assessed as increase in number of MDC-positive parasite by measuring MDC-labelled vacuoles at 25 uM measured after 24 hrs by MDC staining based analysis; format: functional, organism-based
Leishmania donovani [22] = experiment: Antileishmanial activity against amastigote form of Leishmania donovani infected in BALB/c mouse assessed as inhibition of parasite growth in liver at 10 mg/kg, po measured after 1 week post treatment by geimsa staining based analysis relative to control; format: functional; design: scale not given: the % may be the effect or the level left; conditions: time 1 weeks
[23] = Stability of the compound in stimulated gastric fluid at 10 ug/ml at pH 1.2 measured upto 120 min by HPLC analysis; format: ADME; conditions: simulated gastric fluid, at 10 µg/mL, read-out: Stability
Leishmania donovani [24] = experiment: Antileishmanial activity against Leishmania donovani infected in golden hamster assessed as inhibition of parasite growth in spleen at 40 mg/kg, po administered for 7 days and measured after 28 days by giemsa staining based analysis relative to control; format: functional; design: scale not given: the % may be the effect or the level left; conditions: time 28 day
Leishmania donovani [25] = experiment: Antileishmanial activity against Leishmania donovani promastigotes at 25 uM measured after 48 hrs by MTT assay relative to control; format: functional
Leishmania donovani [26] = experiment: Induction of cell cycle arrest in Leishmania donovani promastigotes assessed as accumulation of cells at G1 phase at 25 uM measured after 8 hrs by PI staining based flow cytometry analysis (reference value: 35.7%); format: functional
Leishmania donovani [27] = experiment: Antileishmanial activity against Leishmania donovani promastigotes assessed as decrease in intracellular proline level at 25 uM measured after 24 hrs (reference value: 6.27 mM); format: functional

In the case of `Cn1c(-c2ccc(OCC(=O)Nc3ccccn3)cc2)nc2ccccc2c1=O`, the Activity (Leishmania donovani [1]) is reported as 11.8%, the “fold change (FC)” value (J774 [2]) is reported as 4.87 and the Activity [3] is reported as “Non-Toxic”. It also gave a CC50 (J774 [4]) of 65 µM, an Activity (Leishmania donovani [5]) of 82.68% and an Activity (Leishmania donovani [6]) greater than 50%. For the same compound, the Activity [7] was “Non-Toxic”, the Activity (Leishmania donovani [8]) was 18.7% and the Activity (J774 [9]) was “Active”. For the same compound, the Activity (Leishmania donovani [10]) was 43.8%, the Activity (Leishmania donovani [11]) was 40.44% and the “fold change (FC)” value (Leishmania donovani [12]) was 8.92. The Activity (Leishmania donovani [13]) was 13.9%, the Activity (Leishmania donovani [14]) was 15.5% and the Activity [15] was “Non-Toxic”. For the same compound, the Activity (Leishmania donovani [16]) was “Active”, the Activity (Leishmania donovani [17]) was 85.4% and the Activity (Leishmania donovani [18]) was 72.2%. The Activity (J774 [19]) was 79.57%, the Activity (J774 [20]) was 52.15% and the Activity (Leishmania donovani [21]) was “Active”. The Activity (Leishmania donovani [22]) was greater than 50%, the remaining at 2 h, 10 ug/ml [23] was 94.5% and the Activity (Leishmania donovani [24]) was 68.4%. It also gave an Activity (Leishmania donovani [25]) of 85.64%, an Activity (Leishmania donovani [26]) of 55.5% and an Activity (Leishmania donovani [27]) of 2.96 mM.
